Target: tubulin
Experiment: inhibition of [3H]vinblastine binding
Design: species or system Bos taurus

C/C=C/C(O)C(C)(C)[C@@H]1C\C=C/C=C\C=C/[C@H](OC)Cc2nc(co2)C(=O)O[C@H](C(C)(C)C(O)/C=C/C)C/C=C\C=C/C=C[C@H](OC)Cc2nc(co2)C(=O)O1 (stereo partly shown) [disorazole C1] gave a Ki of 4.5 ± 0.6 µM.
